Patent publication EP4603105A1, “PHARMACEUTICAL COMPOSITION CONTAINING CYCLIC COMPOUND HAVING SELECTIVE KRAS INHIBITORY EFFECT AGAINST HRAS AND NRAS” (CHUGAI SEIYAKU KABUSHIKI KAISHA, priority 2022, dated 2024)
pIC50: −log10 of the molar value. Where a SMILES comes first, the peptide text is derived from it. Bridges are numbered along the chain shown (N, C = ends). [ ]: non-standard residue; d: D form. The star is where a group is joined. hPhe(3-Cl-4-CF3) = N[C@@H](CCc1ccc(C(F)(F)F)c(Cl)c1)C(=O)O; NPrPhe(4-CF3) = CCCN[C@@H](Cc1ccc(C(F)(F)F)cc1)C(=O)O; NMeGly(cPent) = CN[C@H](C(=O)O)C1CCCC1; Hyp = O=C(O)[C@@H]1C[C@@H](O)CN1; NMeD = CN[C@@H](CC(=O)O)C(=O)O; NMeL = CN[C@@H](CC(C)C)C(=O)O; Oxazolidin(3-yl) = C1CN(*)CO1; Morpholide = C1CN(*)CCO1; NMeA = CN[C@@H](C)C(=O)O; Ac5c = NC1(C(=O)O)CCCC1; Aze = O=C(O)[C@@H]1CCN1; Ac4c = NC1(C(=O)O)CCC1; Sar = CNCC(=O)O

Key:
[1] = target: GDP-bound NRAS wild-type protein (Homo sapiens, UniProt P01111); experiment: Binding to NRAS by surface plasmon resonance (SPR), KD and KD ratio to KRAS
In short: (§1)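 Each cycle, GDP-bound biotin-Avi RAS was captured (~100–300 RU), compound concentrations were injected low to high for 75 s each at 100 µL/min, then the chip was regenerated. Buffer: HBS pH 7.4, 10 mM MgCl2, 10 µM GDP, 1 mM DTT, 4% DMSO; 30°C. KD from a 1:1 binding model.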

HRAS wild-type protein = HRAS wild-type protein (Homo sapiens, UniProt P01112); experiment: Binding to HRAS by surface plasmon resonance (SPR), KD and KD ratio to KRAS
In short: as §1

[2] = test system: human lung cancer strain NCI-H441; format: cell-based
In short: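 Signal came from […] measured per well once the reagent was added. Beforehand, cells were cultured at 37°C and 5% carbon dioxide on a compound series serially diluted in dimethyl sulfoxide.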

[3] = ratio of KD for GDP-bound NRAS wild-type protein to KD for KRAS
[4] = ratio of KD for HRAS wild-type protein to KD for KRAS
[5] = ratio of the KD value with respect to GDP-bound NRAS wild-type protein to the KD value with respect to KRAS
[6] = ratio of the KD value with respect to HRAS wild-type protein to the KD value with respect to KRAS
[7] = ratio of KD value for GDP-bound NRAS wild-type protein to KD value for KRAS (SPR)
[8] = ratio of KD value for HRAS wild-type protein to KD value for KRAS (SPR)

GDP-bound NRAS wild-type protein, sequence (P01111 whole entry): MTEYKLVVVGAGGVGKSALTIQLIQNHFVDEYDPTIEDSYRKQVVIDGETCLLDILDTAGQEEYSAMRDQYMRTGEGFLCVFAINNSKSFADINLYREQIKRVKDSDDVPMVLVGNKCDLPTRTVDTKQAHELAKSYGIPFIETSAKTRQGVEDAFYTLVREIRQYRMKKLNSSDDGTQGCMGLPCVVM
HRAS wild-type protein, sequence (P01112 whole entry): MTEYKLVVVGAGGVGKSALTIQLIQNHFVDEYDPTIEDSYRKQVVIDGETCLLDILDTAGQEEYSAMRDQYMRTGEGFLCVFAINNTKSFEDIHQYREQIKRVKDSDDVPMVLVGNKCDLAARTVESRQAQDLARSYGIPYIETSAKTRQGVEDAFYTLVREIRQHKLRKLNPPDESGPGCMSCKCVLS

| Compound | NRAS /KRAS [1, 3] | HRAS /KRAS (HRAS wild-type protein; [4]) | pIC50 [2] | NRAS /KRAS [1, 5] | HRAS /KRAS (HRAS wild-type protein; [6]) | NRAS /KRAS [1, 7] | HRAS /KRAS (HRAS wild-type protein; [8]) |
| --- | --- | --- | --- | --- | --- | --- | --- |
| CCO[C@@H]1C[C@H]2C(=O)NC3(CCC3)C(=O)N(C)[C@@H](C3CCCC3)C(=O)N(C)[C@H](C(=O)N3CCOCC3)CC(=O)N(CC)[C@@H](CC(C)C)C(=O)N[C@@H]([C@@H](C)CC)C(=O)N(C)CC(=O)N(C)[C@H]3CC(C)=CCN(C3=O)[C@@H](Cc3ccc(C(F)(F)F)cc3)C(=O)N(C)CC(=O)N[C@@H](CCc3cc(F)c(C(F)(F)F)c(F)c3)C(=O)N2C1 [PP1044] | C (A compound having a KD ratio of 0.1 or more and less than 3 is denoted as C) | C (A compound having a KD ratio of 0.1 or more and less than 3 is denoted as C) | 7.36 |  |  |  |  |
| CCCN1C(=O)CN(C)C(=O)CN(C)C(=O)[C@H]([C@@H](C)CC)NC(=O)[C@H](CC(C)C)N(C)C(=O)C[C@@H](C(=O)N2CCOCC2)NC(=O)[C@H](C2CCCC2)N(C)C(=O)C2(CCC2)NC(=O)[C@@H]2C[C@@H](OCC)CN2C(=O)[C@H](CCc2ccc(C(F)(F)F)c(Cl)c2)NC(=O)CN(C)C(=O)[C@@H]1Cc1ccc(C(F)(F)F)cc1 [PP0324] ([NMeL]I[Sar][Sar][NPrPhe(4-CF3)][Sar][hPhe(3-Cl-4-CF3)][Hyp](Et)[Ac4c][NMeGly(cPent)]D-Morpholide; lactam N-11) | B (a compound having 3 or more and less than 10 is denoted as B) | B (a compound having 3 or more and less than 10 is denoted as B) | 7.41 |  |  |  |  |
| CCC[C@H]1C(=O)N[C@@H]([C@@H](C)CC)C(=O)N(C2CC2)CC(=O)N(C)[C@H]2C/C=C\CCN(C2=O)[C@@H](Cc2ccc(C)cc2)C(=O)N(C)CC(=O)N[C@@H](CCc2ccc(C(F)(F)F)c(OC)c2)C(=O)N2C[C@H](OCC)C[C@H]2C(=O)NC2(CC(C)(C)C2)C(=O)N(C)[C@@H](CC2CC2)C(=O)N(C)[C@H](C(=O)N(C)C)CC(=O)N1C [PP2803] | A (a compound having 10 or more and less than 20 is denoted as A) | A (a compound having 10 or more and less than 20 is denoted as A) | 6.92 |  |  |  |  |
| CCO[C@@H]1C[C@H]2C(=O)NC3(CCC3)C(=O)N(C)[C@@H](C3CCCC3)C(=O)N(C)[C@H](C(=O)N(C)C)CC(=O)N(C)[C@@H](CC)C(=O)N[C@@H]([C@@H](C)CC)C(=O)N(C)CC(=O)N(C)[C@H]3CCCCCN(C3=O)[C@@H](Cc3ccc(C(F)(F)F)cc3)C(=O)N(C)CC(=O)N[C@@H](CCc3cc(F)c(C(F)(F)F)c(F)c3)C(=O)N2C1 [PP0663] |  |  | 7.64 | B (a compound having 3 or more and less than 10 is denoted as B) | B (a compound having 3 or more and less than 10 is denoted as B) |  |  |
| CCCN(C)C(=O)[C@@H]1CC(=O)N(C)[C@@H](COCC)C(=O)N[C@@H]([C@@H](C)CC)C(=O)N(C)CC(=O)N(C)[C@H]2C/C=C\CCN(C2=O)[C@@H](Cc2ccc(C(F)(F)F)cc2)C(=O)N(C)CC(=O)N[C@@H](CCc2ccc(C(F)(F)F)c(OC)c2)C(=O)N2C[C@H](OCC)C[C@H]2C(=O)NC2(CC(C)(C)C2)C(=O)N(C)[C@@H](C2CCCC2)C(=O)N1C [PP2012] |  |  | 7.94 | AA (a compound having 20 or more is denoted as AA) | A (a compound having 10 or more and less than 20 is denoted as A) |  |  |
| CCCN1C(=O)[C@@H]2CCN2C(=O)[C@H](C)N(C)C(=O)[C@H]([C@@H](C)CC)NC(=O)[C@H](CC(C)C)N(C)C(=O)C[C@@H](C(=O)N2CCOC2)N(C)C(=O)[C@H](C2CCCC2)N(C)C(=O)C2(CCCC2)NC(=O)[C@@H]2CCCN2C(=O)[C@H](CCc2ccc(C(F)(F)F)c(Cl)c2)NC(=O)CN(C)C(=O)[C@@H]1Cc1ccc(C(F)(F)F)cc1 [PP0183] ([NMeL]I[NMeA][Aze][NPrPhe(4-CF3)][Sar][hPhe(3-Cl-4-CF3)]P[Ac5c][NMeGly(cPent)][NMeD]-{Oxazolidin(3-yl)}; lactam N-11) | C (A compound having a KD ratio of 0.1 or more and less than 3 is denoted as C) | B (a compound having 3 or more and less than 10 is denoted as B) | 8.80 |  |  |  |  |
| CCCO[C@@H]1C[C@H]2C(=O)NC3(CCC3)C(=O)N(C)[C@@H](C3CCCC3)C(=O)N(C)[C@H](C(=O)N3CCOCC3)CC(=O)N(C)[C@@H](COC)C(=O)N[C@@H]([C@@H](C)CC)C(=O)N(C)CC(=O)N(C)[C@H]3CCCCCN(C3=O)[C@@H](Cc3ccc(C(F)(F)F)cc3)C(=O)N(C)CC(=O)N[C@@H](CCc3cc(F)c(C(F)(F)F)c(F)c3)C(=O)N2C1 [PP0838] | B (a compound having 3 or more and less than 10 is denoted as B) | B (a compound having 3 or more and less than 10 is denoted as B) | 7.30 |  |  |  |  |
| CCO[C@@H]1C[C@H]2C(=O)NC3(CC(C)(C)C3)C(=O)N(C)[C@@H](C3CCCC3)C(=O)N(C)[C@H](C(=O)N(C)C)CC(=O)N(C)[C@@H](CC3CC3)C(=O)N[C@@H]([C@@H](C)CC)C(=O)N(C)CC(=O)N(C)[C@H]3C/C=C\CCN(C3=O)[C@@H](Cc3ccc(C(F)(F)F)cc3)C(=O)N(C)CC(=O)N[C@@H](CCc3ccc(C(F)(F)F)c(OC)c3)C(=O)N2C1 [PP1563] |  |  | 8.59 |  |  | A (a compound having 10 or more and less than 20 is denoted as A) | A (a compound having 10 or more and less than 20 is denoted as A) |
| CCCO[C@@H]1C[C@H]2C(=O)NC3(CC(C)(C)C3)C(=O)N(C)[C@@H](C3CCCC3)C(=O)N(C)[C@H](C(=O)N(C)C)CC(=O)N(C)[C@H]3CCCCc4ccc(cc4)C[C@@H](C(=O)N(C)CC(=O)N[C@@H](CCc4ccc(C(F)(F)F)c(OC)c4)C(=O)N2C1)N1CC/C=C\C[C@@H](C1=O)N(C)C(=O)CN(C1CC1)C(=O)[C@H]([C@@H](C)CC)NC3=O [PP3082] | B (a compound having 3 or more and less than 10 is denoted as B) | B (a compound having 3 or more and less than 10 is denoted as B) | 8.77 |  |  |  |  |
| CCO[C@@H]1C[C@H]2C(=O)NC3(CCC3)C(=O)N(C)[C@@H](C3CCCC3)C(=O)N(C)[C@H](C(=O)N(C)C)CC(=O)N(C)[C@@H](CC3CCCC3)C(=O)N[C@@H]([C@@H](C)CC)C(=O)N(C)CC(=O)N(C)[C@H]3C/C=C\CCN(C3=O)[C@@H](Cc3ccc(C(F)(F)F)cc3)C(=O)N(C)CC(=O)N[C@@H](CCc3ccc(C(F)(F)F)c(Cl)c3)C(=O)N2C1 [PP2842] | A (a compound having 10 or more and less than 20 is denoted as A) | B (a compound having 3 or more and less than 10 is denoted as B) | 8.14 |  |  |  |  |
| CCO[C@@H]1C[C@H]2C(=O)NC3(CC(C)(C)C3)C(=O)N(C)[C@@H](CC3CCC3)C(=O)N(C)[C@H](C(=O)N(C)C)CC(=O)N(C)[C@@H](COC)C(=O)N[C@@H]([C@@H](C)CC)C(=O)N(C3CC3)CC(=O)N(C)[C@H]3C/C=C\CCN(C3=O)[C@@H](Cc3ccc(C(F)(F)F)cc3)C(=O)N(C)CC(=O)N[C@@H](CCc3ccc(C(F)(F)F)c(OC)c3)C(=O)N2C1 [PP2771] | AA (a compound having 20 or more is denoted as AA) | A (a compound having 10 or more and less than 20 is denoted as A) | 6.83 |  |  |  |  |
| CCC[C@H]1C(=O)N[C@@H]([C@@H](C)CC)C(=O)N(C)CC(=O)N(C)[C@H]2C/C=C\CCN(C2=O)[C@@H](Cc2ccc(C(F)(F)F)cc2)C(=O)N(C)CC(=O)N[C@@H](CCc2ccc3c(C)cn(C)c3c2)C(=O)N2C[C@H](OCC)C[C@H]2C(=O)NC2(CC(C)(C)C2)C(=O)N(C)[C@@H](C(CC)CC)C(=O)N(C)[C@H](C(=O)N(C)C)CC(=O)N1C [PP2908] | AA (a compound having 20 or more is denoted as AA) | A (a compound having 10 or more and less than 20 is denoted as A) | 7.69 |  |  |  |  |
| CCC[C@H]1C(=O)N[C@@H]([C@@H](C)CC)C(=O)N(C2CC2)CC(=O)N(C)[C@H]2C/C=C\CCN(C2=O)[C@@H](Cc2ccc(C)cc2)C(=O)N(C)CC(=O)N[C@@H](CCc2ccc(C3CC3)c(Cl)c2)C(=O)N2C[C@H](OCC)C[C@H]2C(=O)NC2(CC(C)(C)C2)C(=O)N(C)[C@@H](C2CCCC2)C(=O)N(C)[C@H](C(=O)N(C)C)CC(=O)N1C [PP2885] | A (a compound having 10 or more and less than 20 is denoted as A) | A (a compound having 10 or more and less than 20 is denoted as A) | 7.09 |  |  |  |  |
| CC[C@H](C)[C@@H]1NC(=O)[C@@H]2CCC/C=C/c3ccc(cc3)C[C@@H](C(=O)N(C)CC(=O)N[C@@H](CCc3ccc(Cl)c(Cl)c3)C(=O)N3CCC[C@H]3C(=O)NC3(CC(C)(C)C3)C(=O)N(C)[C@@H](C3CCCC3)C(=O)N(C)[C@H](C(=O)N(C)CC)CC(=O)N2C)N2CC/C=C\C[C@@H](C2=O)N(C)C(=O)CN(C)C1=O [PP2601] | A (a compound having 10 or more and less than 20 is denoted as A) | A (a compound having 10 or more and less than 20 is denoted as A) | 8.05 |  |  |  |  |
| CCO[C@@H]1C[C@H]2C(=O)NC3(CC(C)(C)C3)C(=O)N(C)[C@@H](C(CC)CC)C(=O)N(C)C(C(C)C)CC(=O)N(C)[C@@H](CC3CC3)C(=O)N[C@@H]([C@@H](C)CC)C(=O)N(C)CC(=O)N(C)[C@H]3C/C=C\CCN(C3=O)[C@@H](Cc3ccc(C(F)(F)F)cc3)C(=O)N(C)CC(=O)N[C@@H](CCc3cc(F)c(C(F)(F)F)c(F)c3)C(=O)N2C1 (stereo partly drawn) [PP1593] |  |  | 6.84 |  |  | A (a compound having 10 or more and less than 20 is denoted as A) | A (a compound having 10 or more and less than 20 is denoted as A) |
